Experimental data from publication PMC8812735, “Discovery of triterpenoids as potent dual inhibitors of pancreatic lipase and human carboxylesterase 1” (Journal of Enzyme Inhibition and Medicinal Chemistry, 2022).

What was measured:
hCES2A = biological target: T1, hCES2A (Homo sapiens, UniProt O00748); assay: Inhibition of hCES2A-mediated FD hydrolysis; type: biochemical; conditions: FD substrate, mean ± SD (n = 3); read-out: IC50 (µM) hCES2A
T1 sequence (O00748 27-559): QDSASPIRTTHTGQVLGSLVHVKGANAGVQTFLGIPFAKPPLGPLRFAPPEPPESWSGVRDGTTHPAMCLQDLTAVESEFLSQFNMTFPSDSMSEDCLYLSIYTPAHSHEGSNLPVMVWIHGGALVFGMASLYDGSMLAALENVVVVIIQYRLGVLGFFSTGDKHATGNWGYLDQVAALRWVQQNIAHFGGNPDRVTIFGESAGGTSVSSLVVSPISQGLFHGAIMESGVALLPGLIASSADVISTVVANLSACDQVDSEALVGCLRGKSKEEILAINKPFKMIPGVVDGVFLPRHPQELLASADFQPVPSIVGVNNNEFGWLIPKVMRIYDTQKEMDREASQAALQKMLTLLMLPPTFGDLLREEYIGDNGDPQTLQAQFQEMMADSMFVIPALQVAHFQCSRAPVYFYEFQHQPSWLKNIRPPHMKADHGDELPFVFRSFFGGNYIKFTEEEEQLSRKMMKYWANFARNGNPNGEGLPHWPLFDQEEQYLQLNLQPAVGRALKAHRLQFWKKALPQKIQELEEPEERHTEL
Source text: […] (FD) was used as the hCES2A specific probe substrate to assay the inhibitory effect of natural triterpenoids on hCES2A. The entire detailed operation process refers to the previously reported method, and finally the FD mixture was put into the multi-mode microplate reader for analysis and detection.

3T3-L1 cells = assay: Lipid droplet formation in differentiating 3T3-L1 cells (Oil red O staining); type: cell-based, mouse; conditions: high concentration (5 µM)
Method: The cells were planted in a well plate and cultured for 48 h after the cells were 100% confluent. Mix inhibitors compounds 39 and 41 with solution I (10 µg/mL insulin in DMEM/F: 12 medium, 0.5 mM 3-isobutyl-1-methylxanthine and […]) to different concentrations, Then added to different wells and incubated for 48 h, then the inhibitor was mixed with solution II (5 µg/mL insulin in DMEM/F: 12 medium), then added to the wells of the same concentration and incubated for 48 h. Then, the medium in the well was replaced with DMEM/F:12 medium with different concentrations of inhibitors, and the culture was continued for 48 h.
The lipid droplets of 3T3-L1 cells were stained with Oil Red O stain kit (Beijing solebo Technology Co., Ltd., Beijing, China) after cultured for 48 h. In short, 3T3-L1 cells were washed with PBS 2 times and fixed with ORO fixative for 20–30 min, and then washed again with deionised water for 3 times. Then, 3T3-L1 cells were washed with 60% isopropanol for 5 min, immersed in oil red O solution for 10–20 min, and washed with deionised water for 3–5 times. Mayer's haematoxylin staining solution was added, the nucleus was stained for 1–2 min, then washed for 3–5 times, and Oro buffer solution was added for 1 min. Finally, distilled water was added to cover the cells. The stained lipid droplets were observed under inverted microscope (Lecai DMI8).

[1] = biological target: T2, Butyrylcholinesterase (BuChE) (Homo sapiens, UniProt P06276); assay: Inhibition of BuChE-mediated BTCH hydrolysis; type: biochemical
T2 construct: from tissue; host or cells: human serum
T2 sequence (P06276 29-602): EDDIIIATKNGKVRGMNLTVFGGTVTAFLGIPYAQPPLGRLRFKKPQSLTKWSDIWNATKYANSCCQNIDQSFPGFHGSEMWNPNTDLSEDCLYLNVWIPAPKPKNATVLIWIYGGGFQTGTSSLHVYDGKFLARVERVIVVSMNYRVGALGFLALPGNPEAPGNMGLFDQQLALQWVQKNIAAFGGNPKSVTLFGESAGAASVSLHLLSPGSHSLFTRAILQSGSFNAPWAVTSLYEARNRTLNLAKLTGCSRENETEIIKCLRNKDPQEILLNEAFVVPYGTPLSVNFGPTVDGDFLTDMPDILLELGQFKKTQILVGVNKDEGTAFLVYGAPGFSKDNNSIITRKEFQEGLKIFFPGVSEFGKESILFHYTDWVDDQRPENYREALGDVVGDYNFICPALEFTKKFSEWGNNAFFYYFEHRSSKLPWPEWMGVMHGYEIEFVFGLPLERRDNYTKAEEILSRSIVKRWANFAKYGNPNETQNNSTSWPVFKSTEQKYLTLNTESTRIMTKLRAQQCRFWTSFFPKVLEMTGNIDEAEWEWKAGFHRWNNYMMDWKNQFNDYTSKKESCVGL
Method: To assay the inhibitory effects of triterpenoids on Butyrylcholinesterase (BuChE), butyrylthiocholine (BTCH) was used as a substrate for BuChE, The total volume of the system was 100 µL. Including 2 µL DMSO/inhibitor, 2 µL human serum, 84 µL buffered PBS (pH 7.4, 0.1 M), 10 µL substrate iodised butyrylthiocholine (0.3 mM, final concentration) and 2 µL developer 5–5′-dithiobis(2-nitrobenzoic acid) (DTNB) (1 mM, final concentration). The assay protocol of […] was depicted previously. All measurements were performed in triplicates.

SMILES	IC50 (hCES2A) [µM]	lipid droplet formation (3T3-L1 cells)	IC50 [1] [µM]
CC1(C)CCC2(C(=O)O)CCC3(C)C(=CCC4C5(C)C=C(O)C(=O)C(C)(C)C5CCC43C)C2C1 (stereo not drawn) [Compound 39]	6.02 ± 0.75	almost no lipid droplets were formed	> 100
CC(=O)OC1CCC2(C)C(CCC3(C)C2CC=C2C4C(C)C(C)CCC4(C(=O)O)CCC23C)C1(C)C (stereo not drawn) [Compound 41]	5.02 ± 0.88	almost no lipid droplets were formed	> 100
